{
  "source": "patent US6962714B2",
  "about": "“Critical fluid antimicrobial compositions and their use and generation” (priority 2002, dated 2005)",
  "format_in_all_cases": "cell-based",
  "key": {"[1]": {"system": "Staphylococcus aureus ATCC 6538", "experiment": "Hard surface test, stainless steel coupon exposed to vent gas in closed vessel", "conditions": "S. aureus ATCC 6538, vent gas five minutes", "protocol": "(§1) The efficacy of peroxyacetic acid antimicrobial delivered via CO2 gas was tested in a hard surface test against Escherichia coli and Staphylococcus aureus.\n(§2) The coupons were exposed to the peroxyacetic acid antimicrobial vent gas for five minutes. Dry and wet methods were used for the testing. In the dry method, a dry film was generated on the coupon by adding a 20 μl suspension onto the coupon surface and drying the solution prior to the experiment. In the wet method, the 20 μl suspension was added to the coupon surface immediately before placing the coupon in the syringe and exposing it to the antimicrobial gas. After exposure to the antimicrobial gas for a set time period, the coupon was removed and placed in an appropriate neutralizer to stop the antimicrobial chemical activity. The bacteria remaining on the coupons were then incubated and the population reduction was determined."}, "[2]": {"system": "Escherichia coli ATCC 11229", "experiment": "Hard surface test, stainless steel coupon exposed to vent gas in closed vessel", "conditions": "E. coli ATCC 11229, vent gas five minutes", "protocol": "as §1, §2"}, "[3]": {"system": "Staphylococcus aureus ATCC 6538", "experiment": "Aqueous suspension (solution) test, antimicrobial vent gas bubbled through broth", "conditions": "S. aureus ATCC 6538, POAA in CO2 gas bubbled through 10 ml bacteria solution", "protocol": "(§3) Exposure times of 30 seconds and two minutes were tested."}, "[4]": {"system": "Escherichia coli ATCC 11229", "experiment": "Aqueous suspension (solution) test, antimicrobial vent gas bubbled through broth", "conditions": "E. coli ATCC 11229, POAA in CO2 gas bubbled through 10 ml bacteria solution", "protocol": "as §3"}, "[5]": {"conditions": "dry method (dry bacterial film on coupon)"}, "[6]": {"conditions": "wet method (20 μl bacterial suspension on coupon)"}, "[7]": {"conditions": "exposure 2 minutes, listed as peroxyacetic acid"}},
  "data": [
    {"smiles": "CC(=O)OO", "note": "[POAA, peroxyacetic acid]", "values": [
      {"measurement": "Log Reduction", "setting": "[1]; [5]", "result": 5.5, "unit": "log"},
      {"measurement": "Log Reduction", "setting": "[1]; [6]", "result": 5.5, "unit": "log"},
      {"measurement": "Log Reduction", "setting": "[2]; [5]", "result": 6.5, "unit": "log"},
      {"measurement": "Log Reduction", "setting": "[2]; [6]", "result": 6.5, "unit": "log"},
      {"measurement": "Log Reduction", "setting": "[3]; exposure 30 seconds", "result": 2.5, "unit": "log"},
      {"measurement": "Log Reduction", "setting": "[3]; exposure 2 minutes", "result": 6.3, "unit": "log"},
      {"measurement": "Log Reduction", "setting": "[3]; [7]", "result": "greater than 6 log"},
      {"measurement": "Log Reduction", "setting": "[4]; exposure 30 seconds", "result": 1.1, "unit": "log"},
      {"measurement": "Log Reduction", "setting": "[4]; exposure 2 minutes", "result": 6.1, "unit": "log"},
      {"measurement": "Log Reduction", "setting": "[4]; [7]", "result": "greater than 6 log"}
    ]}
  ]
}
